{"source": "paper PMC7865387", "about": "“Artemether-Loaded Zein Nanoparticles: An Innovative Intravenous Dosage Form for the Management of Severe Malaria” (International Journal of Molecular Sciences, 2021)", "key": {"[1]": {"assay": "In vitro release study (sample and separate method)", "assay_type": "physicochemical", "conditions": "PBS pH 7.4, 37 °C, sink conditions; n = 3", "protocol": "The dissolution profile of artemether-loaded zein nanoparticles was studied by the “sample and separate” method. In brief, artemether-loaded zein nanoparticle powders containing 6 mg artemether were put in 100 mL phosphate buffered saline (PBS) of pH 7.4. The study was performed under sink conditions at 37 ± 0.5 °C with 150 rpm stirring. The beaker was covered with parafilm to minimize water loss via evaporation. In total, 1 mL samples were withdrawn at selected time points (1/12, 1/6, 1/4, 1/2, 1, 2, 3, 4, 5, 6, 24 h). Samples were centrifuged at 10,800 rpm for 30 min and the supernatants were analyzed by HPLC in the same way as drug content. Then, 1 mL PBS at 37 °C was added after each sampling to maintain sink condition. The experiment was repeated 3 times to ensure consistency. Raw artemether was used as control. Mean values and standard deviations were subsequently calculated."}, "[2]": {"tested_on": "red blood cells (RBCs)", "assay": "In vitro hemolytic test", "assay_type": "cell-based", "conditions": "artemether 2 mg/mL in 5% DMSO; 4% v/v rat RBCs, 37 °C, 1 h; positive control Triton X 100", "protocol": "This test was performed to examine the hemolytic potential of artemether-loaded zein nanoparticles and the formulation ingredients on red blood cells (RBCs). Freshly collected rat blood was centrifuged at 1500× g for 10 min at 4 °C. The plasma was collected for other purpose. The remaining RBCs were washed with PBS and then centrifuged at 1500× g at 4 °C for 5 min. After two repeats of such procedures, the RBCs were diluted 25 times with PBS to make a 4% v/v RBCs dispersion. Such RBCs were kept at 4 °C and used within 24 h. The impact of artemether-loaded zein nanoparticles containing 2 mg/mL artemether, raw artemether in 5% v/v aqueous DMSO solution (2 mg/mL), 5% v/v aqueous DMSO solution, sodium caseinate (7.5 mg/mL) solution, artemether (2 mg/mL) together with sodium caseinate (7.5 mg/mL) solution was assessed. PBS and 1% v/v Triton-X 100 solution were assessed by adding 1 mL of the test solutions each to 1 mL of the 4% v/v RBCs dispersion. Each sample was incubated with the RBCs at 37 °C for 1 h and then centrifuged at 1500× g for 10 min. The absorbance of the supernatant was taken at 550 nm with U-2900 UV spectrophotometer (Hitachi, Japan). Percentage haemolysis was calculated as follows:(3) Hemolysis (%)=AbsorbanceTest group−AbsorbancePBS/AbsorbanceTriton−X100−AbsorbancePBS×100%"}, "[3]": {"parameters": "method as in PMID 21914160", "conditions": "intravenous artesunate, clinical practice; cited from earlier work"}, "[4]": {"conditions": "cited from earlier work"}}, "data": [{"compound": "CO[C@H]1O[C@@H]2O[C@@]3(C)CC[C@H]4[C@H](C)CC[C@@H]([C@H]1C)[C@@]24OO3", "note": "[artemether]", "values": [{"measurement": "artemether released / dissolved within 5 h", "setting": "[1]", "value": "almost all"}, {"measurement": "hemolytic effect (in words)", "setting": "[2]", "value": "destroyed RBCs as much as the positive control"}]}, {"compound": "C[C@H]1[C@H](OC(=O)CCC(=O)O)O[C@@H]2O[C@@]3(C)CC[C@H]4[C@H](C)CC[C@@H]1[C@@]24OO3", "note": "[artesunate]", "values": [{"measurement": "half-life", "setting": "[3]", "value": "less than 1 h"}]}, {"compound": "Zein", "values": [{"measurement": "isoelectric point (pI)", "setting": "[4]", "value": 6.2}]}, {"compound": "sodium caseinate", "values": [{"measurement": "isoelectric point (pI)", "setting": "[4]", "value": 4.5}]}]}
